Laboratory results taken from EP0187355A1, “Process for preparing beta-lactam antibiotics” (E.R. Squibb & Sons, Inc., priority 1981, dated 1982).
Structures can show the parent of a compound that is named as a salt.

Experiments:
Assay in all cases: MIC, agar dilution
Type in all cases: cell-based
[1] = test system: Streptococcus agalactiae, 9287; conditions: Streptococcus agalactiae, 9287, 18 h, K-10 agar, 10^4 CFU, 37°C, read-out: M.I.C.
Description: (§1) The following methodology is used to determine the minimum inhibitory concentration (hereinafter referred to as MIC) of the […] of this invention.
(§2) The test organisms are grown in approximately 15-20 ml of Antibiotic Assay broth (Difco) by inoculating (in tubes) the broth with a loopful of the organism from a BHI (Difco) agar slant. The inoculated tubes are incubated at 37°C for 18 to 20 hours. These cultures are assumed to contain 10^9 colony forming units (hereinafter CFU) per milliliter. The cultures are diluted 1:100 to give a final inoculum level of 10^4 CFU; dilutions are made with K-10 broth^*.
(§3) The compounds are dissolved in the appropriate diluent at a concentration of 1000 µg/ml. Twofold dilutions are made in K-10 broth resulting in a range from 1000 µg/ml to 0.5 µg/ml. 1.5 ml of each dilution is placed into individual square petri dishes to which 13.5 ml of K-10 agar^** is added. The final drug concentration in the agar ranges from 100 µg/ml to 0.05 µg/ml. Organism growth control plates containing agar only are prepared and inoculated before and after the test plates. The organisms are applied to the agar surface of each plate with the Denley Multipoint Inoculator (which delivers approximately 0.001 ml of each organism) resulting in a final inoculum level of 10^4 CFU on the agar surface.
(§4) The MIC is the lowest concentration of compound inhibiting growth of the organism.
(§5) The number following each organism refers to the number of the organism in the collection of E. R. Squibb & Sons,.Inc., Princeton, New Jersey. […] The symbol "N.T." means not tested.

[2] = test system: Enterobacter cloacae, 8236; conditions: Enterobacter cloacae, 8236, 18 h, K-10 agar, 10^4 CFU, 37°C
Description: as §1, §2, §3, §4, §5

Micrococcus luteus, 2495 = conditions: Micrococcus luteus, 2495, 18 h, K-10 agar, 10^4 CFU, 37°C, read-out: M.I.C.
Description: as §1, §2, §3, §4, §5

[3] = test system: Staphylococcus aureus, 2400; conditions: Staphylococcus aureus, 2400; K-10 agar, 10^4 CFU, 37°C, 18 hours; read-out: M.I.C.
How it was run: (§6)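 Agar dilution in K-10 agar; final drug 100–0.05 µg/ml, twofold steps. Inoculum 10^4 CFU/spot via multipoint inoculator from 18–20 h broth culture diluted 1:100. Incubation 37°C, 18 h; MIC = lowest concentration with no growth.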

Escherichia coli, 8294 = conditions: Escherichia coli, 8294, 18 h, K-10 agar, 10^4 CFU, 37°C
How it was run: as §6

[4] = test system: Citrobacter freundii, 9518; conditions: K-10 agar, 10^4 CFU, 37°C, 18 hours, read-out: M.I.C.
How it was run: as §6

[5] = test system: Pseudomonas aeruginosa, 8329; conditions: K-10 agar, 10^4 CFU, 37°C, 18 hours, read-out: M.I.C.
How it was run: as §6

[6] = test system: Klebsiella aerogenes, 10440; conditions: K-10 agar, 10^4 CFU, 37°C, 18 hours, read-out: M.I.C.
How it was run: as §6

[7] = test system: Pseudomonas aeruginosa, 9545; conditions: Pseudomonas aeruginosa, 9545, 18 h, K-10 agar, 10^4 CFU, 37°C, read-out: M.I.C.
How it was run: as §6

[8] = test system: Staphylococcus aureus, 1276; conditions: Staphylococcus aureus, 1276; K-10 agar, 10^4 CFU, 37°C, 18 hours; read-out: M.I.C.
How it was run: as §6

Shigella sonnei, 8449 = conditions: Shigella sonnei, 8449, 18 h, K-10 agar, 10^4 CFU, 37°C
How it was run: as §6

Escherichia coli, 10857 = conditions: Escherichia coli, 10857, 18 h, K-10 agar, 10^4 CFU, 37°C
How it was run: as §6

[9] = test system: Staphylococcus aureus, 2399; conditions: Staphylococcus aureus, 2399, 18 h, Staphylococcus aureus, 2399; K-10 agar, 10^4 CFU, 37°C, 18 hours; read-out: M.I.C.
How it was run: as §6

[10] = test system: Acinetobacter calcoaceticus, 8333; conditions: Acinetobacter calcoaceticus, 8333, 18 h, K-10 agar, 10^4 CFU, 37°C, read-out: M.I.C.
How it was run: as §6

Escherichia coli, 10909 = conditions: K-10 agar, 10^4 CFU, 37°C, 18 hours
How it was run: as §6

Proteus mirabilis, 3855 = conditions: Proteus mirabilis, 3855, 18 h, K-10 agar, 10^4 CFU, 37°C, read-out: M.I.C.
How it was run: as §6

[11] = test system: Enterobacter aerogenes, 10078; conditions: Klebsiella aerogenes, 10078, 18 h, Enterobacter aerogenes, 10078; K-10 agar, 10^4 CFU, 37°C, 18 hours; read-out: M.I.C.
How it was run: as §6

[12] = test system: Streptococcus faecalis, 9011; conditions: Enterococcus faecalis; Streptococcus faecalis, 9011; K-10 agar, 10^4 CFU, 37°C, 18 hours; read-out: M.I.C.
How it was run: as §6

Proteus vulgaris, 9416 = conditions: K-10 agar, 10^4 CFU, 37°C, 18 hours, read-out: M.I.C.
How it was run: as §6

Proteus rettgeri, 8479 = conditions: Providencia rettgeri, K-10 agar, 10^4 CFU, 37°C, 18 hours, read-out: M.I.C.
How it was run: as §6

[13] = test system: Serratia marcescens, 9783; conditions: Serratia marcescens, 9783, 18 h, K-10 agar, 10^4 CFU, 37°C, read-out: M.I.C.
How it was run: as §6

[14] = test system: Klebsiella pneumoniae, 9527; conditions: Klebsiella pneumoniae, 9527, 18 h, K-10 agar, 10^4 CFU, 37°C, read-out: M.I.C.
How it was run: as §6

[15] = test system: Staphylococcus aureus, 10165; conditions: Staphylococcus aureus, 10165; K-10 agar, 10^4 CFU, 37°C, 18 hours; read-out: M.I.C.
How it was run: as §6

Escherichia coli, 10896 = conditions: K-10 agar, 10^4 CFU, 37°C, 18 hours
How it was run: as §6

Salmonella typhosa, 1195 = conditions: Salmonella enterica, TYPHOSA, 18 h, K-10 agar, 10^4 CFU, 37°C
How it was run: as §6

Compound	MIC [1]	MIC [2]	MIC (Micrococcus luteus, 2495)	MIC [3]	MIC (Escherichia coli, 8294)	MIC [4]	MIC [5]	MIC [6]	MIC [7]	MIC [8]	MIC (Shigella sonnei, 8449)	MIC (Escherichia coli, 10857)	MIC [9]	MIC [10]	MIC (Escherichia coli, 10909)	MIC (Proteus mirabilis, 3855)	MIC [11]	MIC [12]	MIC (Proteus vulgaris, 9416)	MIC (Proteus rettgeri, 8479)	further results
CC1(C)C(NC(=O)Cc2ccccc2)C(=O)N1S(=O)(=O)O (racemic) [Example 26, (±)-4,4-Dimethyl-2-oxo-3-[(phenylacetyl)amino]-1-azetidinesulfonic acid, potassium salt]	> 100 µg/mL	> 100 µg/mL	> 100 µg/mL	> 100 µg/mL	> 100 µg/mL	> 100 µg/mL	> 100 µg/mL	> 100 µg/mL	> 100 µg/mL	> 100 µg/mL	> 100 µg/mL	50 µg/mL	> 100 µg/mL	> 100 µg/mL	> 100 µg/mL	> 100 µg/mL	> 100 µg/mL	> 100 µg/mL	100 µg/mL	100 µg/mL	MIC [13]: > 100 µg/mL; MIC [14]: > 100 µg/mL; MIC [15]: > 100 µg/mL; MIC (Escherichia coli, 10896): > 100 µg/mL; MIC (Salmonella typhosa, 1195): > 100 µg/mL
C[C@@H]1[C@H](NC(=O)[C@H](NC(=O)N2CCN(NC(=O)OCc3ccccc3)C(=O)C2=O)c2ccccc2)C(=O)N1S(=O)(=O)O (relative stereo) [Example 20, [3S-[3α(R*),4α]]-[4-[[[2-[(4-methyl-2-oxo-1-sulfo-3-azetidinyl)amino]-2-oxo-1-phenylethyl]amino]carbonyl]-2,3-dioxo-1-piperazinyl]carbamic acid, phenylmethyl ester, potassium salt]	3.1 µg/mL	1.6 µg/mL	3.1 µg/mL	25 µg/mL	3.1 µg/mL	3.1 µg/mL	100 µg/mL	12.5 µg/mL	3.1 µg/mL	6.3 µg/mL	1.6 µg/mL	< 0.05 µg/mL	6.3 µg/mL	50 µg/mL	0.4 µg/mL	1.6 µg/mL	6.3 µg/mL	> 100 µg/mL	< 0.05 µg/mL	1.6 µg/mL	MIC [13]: 3.1 µg/mL; MIC [14]: 0.4 µg/mL; MIC [15]: > 100 µg/mL; MIC (Escherichia coli, 10896): 0.8 µg/mL; MIC (Salmonella typhosa, 1195): 1.6 µg/mL
C[C@@H]1[C@H](NC(=O)[C@H](NC(=O)N2CCN(N=Cc3ccco3)C2=O)c2ccccc2)C(=O)N1S(=O)(=O)O (relative stereo) [Example 21, [3S-[3α(R*),4α]]-3-[[[[[3-[(2-furanylmethylene)-amino]-2-oxo-1-imidazolidinyl]carbonyl]-amino]phenylacetyl]amino]-4-methyl-2-oxo-1-azetidinesulfonic acid, potassium salt]	0.4 µg/mL	1.6 µg/mL	3.1 µg/mL	6.3 µg/mL	1.6 µg/mL	1.6 µg/mL	12.5 µg/mL	1.6 µg/mL	12.5 µg/mL	3.1 µg/mL	0.8 µg/mL	< 0.05 µg/mL	3.1 µg/mL	50 µg/mL	0.2 µg/mL	0.8 µg/mL	3.1 µg/mL	> 100 µg/mL	< 0.05 µg/mL	1.6 µg/mL	MIC [13]: 3.1 µg/mL; MIC [14]: 0.2 µg/mL; MIC [15]: 100 µg/mL; MIC (Escherichia coli, 10896): 0.4 µg/mL; MIC (Salmonella typhosa, 1195): 0.4 µg/mL
